Measurements published in PubChem BioAssay AID330 (DTP/NCI, 2004).
Where “and” joins values, the source holds several entries; their conditions need not be identical. Equal values may be shown once. Inconclusive results and toxic doses are left out.

Tested on: P388 leukemia ip, CD2F1 mice, survival T/C
Assay: NCI In Vivo Anticancer Drug Screen. Data for tumor model P388 Leukemia (intraperitoneal) in CD2F1 (CDF1) mice
Settings: endpoint: median survival time, higher = longer survival
Method in brief: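 Mice carrying the transplanted tumor received test compound or vehicle. Survival was recorded in each group, and the value is the treated-group measurement divided by that of the vehicle-treated control group.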

[1] = dose: 6.25 mg/kg/injection, schedule: Q01DX009 (ip), vehicle: distilled water + Tween-80
[2] = dose: 12.5 mg/kg/injection, schedule: Q01DX009 (ip), vehicle: distilled water + Tween-80
[3] = dose: 25.0 mg/kg/injection, schedule: Q01DX009 (ip), vehicle: distilled water + Tween-80
[4] = dose: 60.0 mg/kg/injection, schedule: Q01DX005 (ip), vehicle: saline with Tween-80
[5] = dose: 120.0 mg/kg/injection, schedule: Q01DX005 (ip), vehicle: saline with Tween-80
[6] = dose: 240.0 mg/kg/injection, schedule: Q01DX005 (ip), vehicle: saline with Tween-80
[7] = dose: 50.0 mg/kg/injection, schedule: Q01DX009 (ip), vehicle: saline with Tween-80
[8] = dose: 100.0 mg/kg/injection, schedule: Q01DX009 (ip), vehicle: saline with Tween-80
[9] = dose: 200.0 mg/kg/injection, schedule: Q01DX009 (ip), vehicle: saline with Tween-80
[10] = dose: 50.0 mg/kg/injection, schedule: Q01DX005 (ip), vehicle: Klucel (hydroxypropylcellulose) (HPC)
[11] = dose: 50.0 mg/kg/injection, schedule: Q01DX005 (ip), vehicle: saline with Tween-80
[12] = dose: 100.0 mg/kg/injection, schedule: Q01DX005 (ip), vehicle: saline with Tween-80
[13] = dose: 200.0 mg/kg/injection, schedule: Q01DX005 (ip), vehicle: saline with Tween-80
[14] = dose: 25.0 mg/kg/injection, schedule: Q01DX009 (ip), vehicle: saline with Tween-80
[15] = dose: 50.0 mg/kg/injection, schedule: Q01DX009 (ip), vehicle: Klucel (hydroxypropylcellulose) (HPC)
[16] = dose: 100.0 mg/kg/injection, schedule: Q01DX009 (ip), vehicle: Klucel (hydroxypropylcellulose) (HPC)
[17] = dose: 12.5 mg/kg/injection, schedule: Q01DX009 (ip), vehicle: Klucel (hydroxypropylcellulose) (HPC)
[18] = dose: 60.0 mg/kg/injection, schedule: Q01DX005 (ip), vehicle: Klucel (hydroxypropylcellulose) (HPC)
[19] = dose: 120.0 mg/kg/injection, schedule: Q01DX005 (ip), vehicle: Klucel (hydroxypropylcellulose) (HPC)
[20] = dose: 240.0 mg/kg/injection, schedule: Q01DX005 (ip), vehicle: Klucel (hydroxypropylcellulose) (HPC)

COc1cc(CC2C(CO)OC(=O)C2Cc2ccc3c(c2)OCO3)cc(OC)c1OC (stereo not drawn) was tested, and the T/C (dose: 50.0 mg/kg/injection, schedule: Q04DX002 (ip), vehicle: acetone) was 98 % of control, the T/C (dose: 100.0 mg/kg/injection, schedule: Q04DX002 (ip), vehicle: acetone) was 98 % of control and the T/C (dose: 200.0 mg/kg/injection, schedule: Q04DX002 (ip), vehicle: acetone) was 98 % of control.
COc1ccc(-c2c[s+]cs2)cc1 was tested, and the T/C [1] was 103 % of control, the T/C [2] was 112 % of control and the T/C [3] was 100 % of control. The T/C (dose: 50.0 mg/kg/injection, schedule: Q01DX009 (ip), vehicle: distilled water + Tween-80) was 116 % of control, the T/C (dose: 100.0 mg/kg/injection, schedule: Q01DX009 (ip), vehicle: distilled water + Tween-80) was 109 % of control and the T/C (dose: 200.0 mg/kg/injection, schedule: Q01DX009 (ip), vehicle: distilled water + Tween-80) was 93 % of control.
With NC1=NN(Cc2nnc(-c3ccccc3)s2)C(=O)C1 the T/C [4] was 93 % of control, the T/C [5] was 101 % of control and the T/C [6] was 111 % of control.
CCN(CC)C(=O)Oc1cc(C(=O)N(CC)CC)c(OC(=O)N(CC)CC)cc1C(=O)N(CC)CC was tested, and the T/C [4] was 101 % of control, the T/C [5] was 92 % of control and the T/C [6] was 89 % of control.
In the case of CC(=O)OC1=CC2C(OC1=O)C1C=CC2(OC(C)=O)C(=O)O1 (stereo not drawn), the T/C [7] is reported as 102 % of control, the T/C [8] is reported as 104 % of control and the T/C [9] is reported as 113 % of control.
CCCCC(CC)COCC(O)Cn1cnc2c(N)ncnc21 (stereo not drawn) was tested, and the T/C [10] was 104 % of control, the T/C (dose: 100.0 mg/kg/injection, schedule: Q01DX005 (ip), vehicle: Klucel (hydroxypropylcellulose) (HPC)) was 97 % of control and the T/C (dose: 200.0 mg/kg/injection, schedule: Q01DX005 (ip), vehicle: Klucel (hydroxypropylcellulose) (HPC)) was 91 % of control.
With COC(=O)C1CCC[P+]1(C)C (stereo not drawn) the T/C (dose: 100.0 mg/kg/injection, schedule: Q01DX001 (ip), vehicle: saline) was 106 % of control and the T/C (dose: 400.0 mg/kg/injection, schedule: Q01DX001 (ip), vehicle: saline) was 101 % of control.
In the case of CCC(=O)C(=O)NC(C)C(C)=O (stereo not drawn), the T/C [11] is reported as 99 % of control, the T/C [12] is reported as 98 % of control and the T/C [13] is reported as 100 % of control.
In the case of CCCCCCCCCCSc1ncnc2nc[nH]c12, the T/C (dose: 12.5 mg/kg/injection, schedule: Q01DX009 (ip), vehicle: saline with Tween-80) is reported as 100 % of control, the T/C [14] is reported as 90 % of control and the T/C [7] is reported as 90 % of control.
With Cc1ccccc1NC(CCN1CCCCC1)=NC(C)(C)C the T/C [7] was 111 % of control, the T/C [8] was 103 % of control and the T/C [9] was 100 % of control.
In the case of O=[N+]([O-])c1ccc(O)c(/C=N\NS(=O)(=O)c2ccc(F)cc2)c1, the T/C [11] is reported as 103 % of control and the T/C [12] is reported as 93 % of control.
For O=c1c2cc3ccccc3cc2c(=O)n2n1CC=CC2, the T/C [15] was 97 % of control and the T/C [16] was 90 % of control.
For C=Cn1c([N+](=O)[O-])cnc1/C=C/c1ccc(C(=O)O)cc1, the T/C [15] was 92 % of control and 97 % of control, the T/C [16] was 89 % of control and 90 % of control and the T/C (dose: 200.0 mg/kg/injection, schedule: Q01DX009 (ip), vehicle: Klucel (hydroxypropylcellulose) (HPC)) was 95 % of control.
For O=C(CCl)NNC(=O)CCl, the T/C [17] was 117 % of control.
In the case of CCC(/C=C/c1ccccc1)=N\Nc1ccc(Cl)c(Cl)c1, the T/C [11] is reported as 104 % of control, the T/C [12] is reported as 96 % of control and the T/C [13] is reported as 91 % of control.
With NC(Cc1cccs1)C(=O)Nc1nncs1 (stereo not drawn) the T/C (dose: 100.0 mg/kg/injection, schedule: Q04DX002 (ip), vehicle: suspension in saline) was 95 % of control, the T/C (dose: 200.0 mg/kg/injection, schedule: Q04DX002 (ip), vehicle: suspension in saline) was 119 % of control and the T/C (dose: 400.0 mg/kg/injection, schedule: Q04DX002 (ip), vehicle: saline) was 160 % of control. The T/C (dose: 400.0 mg/kg/injection, schedule: Q04DX002 (ip), vehicle: suspension in saline) was 121 % of control and the T/C (dose: 600.0 mg/kg/injection, schedule: Q04DX002 (ip), vehicle: saline) was 160 % of control.
In the case of CCCCCC1(C2CCCCO2)NC(=O)NC1=O (stereo not drawn), the T/C [11] is reported as 97 % of control, the T/C [12] is reported as 99 % of control and the T/C [13] is reported as 91 % of control.
For Nc1nc(N)c(Nc2ccc(Cl)cc2)c(Cl)n1, the T/C (dose: 25.0 mg/kg/injection, schedule: Q01DX001 (ip), vehicle: saline with Tween-80) was 102 % of control, the T/C (dose: 50.0 mg/kg/injection, schedule: Q01DX001 (ip), vehicle: saline with Tween-80) was 101 % of control and the T/C (dose: 100.0 mg/kg/injection, schedule: Q01DX001 (ip), vehicle: saline with Tween-80) was 95 % of control.
For CC(C)(C)COc1ccc2c(c1)C1=NC2=NC2=NC(=NC3=NC(=NC4=NC(=N1)c1ccc(OCC(C)(C)C)cc14)c1ccc(OCC(C)(C)C)cc13)c1ccc(OCC(C)(C)C)cc12, the T/C [18] was 99 % of control, the T/C [19] was 88 % of control and the T/C [20] was 89 % of control.
Cc1cccc(=O)[n-]1.Cc1cccc(=O)[n-]1.Cc1cccc(=O)[n-]1.Cc1cccc(=O)[n-]1.Cc1cccc(=O)[n-]1.Cc1cccc(=O)[n-]1.Cc1cccc(=[OH+])[n-]1.Cc1cccc(=[OH+])[n-]1.[Rh+2].[Rh+2].[Rh+2].[Rh+2] was tested, and the T/C (dose: 100.0 mg/kg/injection, schedule: Q04DX002 (ip), vehicle: Klucel (hydroxypropylcellulose) (HPC)) was 104 % of control and the T/C (dose: 200.0 mg/kg/injection, schedule: Q04DX002 (ip), vehicle: Klucel (hydroxypropylcellulose) (HPC)) was 113 % of control.
For C=C1C(=O)OC2C(OC(=O)CC(C)C)CCCC12 (stereo not drawn), the T/C [18] was 94 % of control, the T/C [19] was 92 % of control and the T/C [20] was 92 % of control.
Nc1nc(-c2ccccc2N=NN2CCCCC2)nc2ccccc12 was tested, and the T/C [17] was 111 % of control, the T/C (dose: 25.0 mg/kg/injection, schedule: Q01DX009 (ip), vehicle: Klucel (hydroxypropylcellulose) (HPC)) was 102 % of control and the T/C [15] was 104 % of control. For the same compound, the T/C [16] was 110 % of control and 113 % of control.
For CC1(/C=C/c2ccccc2)OCCO1, the T/C [7] was 99 % of control, the T/C [8] was 98 % of control and the T/C [9] was 102 % of control.
For CC(=O)C1=C(C)C2CC3(C)CC(C2(C)C1)C3(C)C (stereo not drawn), the T/C [11] was 100 % of control, the T/C [12] was 102 % of control and the T/C [13] was 100 % of control.
CC1CCC(C(C)C)/C(=N/NC(=O)c2cccnc2)C1 (stereo not drawn) was tested, and the T/C (dose: 12.5 mg/kg/injection, schedule: Q01DX005 (ip), vehicle: Klucel (hydroxypropylcellulose) (HPC)) was 100 % of control, the T/C (dose: 25.0 mg/kg/injection, schedule: Q01DX005 (ip), vehicle: Klucel (hydroxypropylcellulose) (HPC)) was 104 % of control and the T/C [10] was 100 % of control.
CC1(C)OC2C(COC(=O)Oc3ccccc3)OC(n3cnc4c(=S)nc[nH]c43)C2O1 (stereo not drawn) was tested, and the T/C [14] was 95 % of control, the T/C (dose: 25.0 mg/kg/injection, schedule: Q04DX003 (ip), vehicle: saline with Tween-80) was 105 % of control and the T/C [7] was 95 % of control. For the same compound, the T/C (dose: 50.0 mg/kg/injection, schedule: Q04DX003 (ip), vehicle: saline with Tween-80) was 110 % of control, the T/C [8] was 95 % of control and the T/C (dose: 100.0 mg/kg/injection, schedule: Q04DX003 (ip), vehicle: saline with Tween-80) was 100 % of control.
For CCCCCCCCCCCC[S][Sn]([CH2]CCC)([S]CCCCCCCCCCCC)[S]CCCCCCCCCCCC, the T/C (dose: 50.0 mg/kg/injection, schedule: Q01DX009 (ip), vehicle: saline) was 87 % of control, the T/C (dose: 100.0 mg/kg/injection, schedule: Q01DX009 (ip), vehicle: saline) was 99 % of control and the T/C (dose: 200.0 mg/kg/injection, schedule: Q01DX009 (ip), vehicle: saline) was 95 % of control.
In the case of [Br][Sn]([Br])([CH2]c1ccccc1)[c]1ccccc1, the T/C (dose: 1.56 mg/kg/injection, schedule: Q04DX003 (ip), vehicle: saline) is reported as 101 % of control and 102 % of control, the T/C (dose: 3.12 mg/kg/injection, schedule: Q04DX003 (ip), vehicle: saline) is reported as 99 % of control and 102 % of control and the T/C (dose: 6.25 mg/kg/injection, schedule: Q04DX003 (ip), vehicle: saline with Tween-80) is reported as 118 % of control. For the same compound, the T/C (dose: 6.25 mg/kg/injection, schedule: Q04DX003 (ip), vehicle: saline) was 105 % of control and 106 % of control and the T/C (dose: 12.5 mg/kg/injection, schedule: Q04DX003 (ip), vehicle: saline) was 99 % of control and 104 % of control.
In the case of [O-][n+]1c2ccccc2[n+]([O-])c2c(O)cccc21, the T/C (dose: 3.12 mg/kg/injection, schedule: Q01DX009 (ip), vehicle: distilled water + Tween-80) is reported as 113 % of control, the T/C [1] is reported as 114 % of control and 121 % of control and the T/C [2] is reported as 121 % of control. The T/C [3] was 119 % of control and 122 % of control.
